# Where two headings read alike, the source gives them in different places.
# Key:
# Format in all cases: cell-based
# [1] = system: E. coli MC4100; experiment: Minimal inhibitory concentration, E. coli MC4100; conditions: read-out: MIC (μM) E. coli MC4100 ara+
# Procedure: (§1) General Procedure for Determination of Minimal Inhibitory Concentrations
# (§2) Overnight cultures (5 mL) of bacterial strains were grown in LB media or TSA media (for S. aureus) at 37° C. and with shaking at 220 rpm until saturation. The overnight culture was diluted serially 1:100 (50 μL in 5 mL sterile media) and then 1:100 (250 μL in 25 mL sterile media). The 25 mL of diluted culture was then dispensed to a sterile 96 well plate (Corning #3370). 198 μL of culture were dispensed into row A and 100 μL of this culture were dispensed into rows B-H. Aminocoumarin compound (DMSO stock) were added to the first row and then the row was mixed by pipetting. 100 μL of culture from row A were transferred to row B and the serial dilution continued until the final 100 μL from row H were discarded. The plate was incubated without shaking in a 37° C. for 16 hours and then read by visible light spectrophotometer (Molecular Devices) at 600 nm. The minimal inhibitory concentration (MIC) was determined as the lowest concentration of compound concentration that inhibited the growth of bacteria.
# (§3) The compounds of the invention were assessed for activities against the pathogens S. aureus RN4220 and MW2, E. cloacae 13047, A. baumannii 19606, K. pneumoniae 700721, E. coli MC4100, 25922. All activities are reported in micromolar (uM) and are 16 hour minimal inhibitory concentrations at 37° C. The assay is detailed in Example 11 and is titled “General Procedure for Determination of Minimal Inhibitory Concentrations.”
# [2] = system: E. coli 25922; experiment: Minimal inhibitory concentration, E. coli 25922; conditions: read-out: MIC (μM) E. coli 25922
# Procedure: as §1, §2, §3
# [3] = system: E. cloacae 13047; experiment: Minimal inhibitory concentration, E. cloacae 13047; conditions: read-out: MIC (μM) E. cloacae 13047
# Procedure: as §1, §2, §3
# [4] = system: S. aureus RN4220; experiment: Minimal inhibitory concentration, S. aureus RN4220; conditions: read-out: MIC (μM) S. aureus RN4220
# Procedure: as §1, §2, §3
# [5] = system: S. aureus MW2; experiment: Minimal inhibitory concentration, S. aureus MW2; conditions: read-out: MIC (μM) S. aureus MW2 (MRSA)
# Procedure: as §1, §2, §3
# [6] = system: K. pneumoniae 700721; experiment: Minimal inhibitory concentration, K. pneumoniae 700721; conditions: read-out: MIC (μM) K. pneumoniae 700721
# Procedure: as §1, §2, §3
# [7] = system: A. baumannii 19606; experiment: Minimal inhibitory concentration, A. baumannii 19606; conditions: read-out: MIC (μM) A. baumannii 19606
# Procedure: as §1, §2, §3
# [8] = Enterobacter cloacae, 13047, 16 h
# [9] = Staphylococcus aureus, RN4220, 16 h
# [10] = Staphylococcus aureus, MRSA, 16 h
# [11] = Klebsiella pneumoniae, 700721, 16 h
# [12] = Acinetobacter baumannii, 19606, 16 h
# [13] = Enterobacter cloacae, 13047, 16 hour minimal inhibitory concentration at 37° C.
# [14] = Staphylococcus aureus, RN4220, 16 h, 16 hour minimal inhibitory concentration at 37° C.
# [15] = Klebsiella pneumoniae, 700721, 16 hour minimal inhibitory concentration at 37° C.
# [16] = Escherichia coli, MC4100, 16 h, 16 hour minimal inhibitory concentration at 37° C.
# [17] = Escherichia coli, 25922, 16 h, 16 hour minimal inhibitory concentration at 37° C.
# [18] = Staphylococcus aureus, MRSA, 16 h, 16 hour minimal inhibitory concentration at 37° C.
# [19] = Acinetobacter baumannii, 19606, 16 h, 16 hour minimal inhibitory concentration at 37° C.
# [20] = 16 hour minimal inhibitory concentration at 37° C.
smiles,measurement,setting,value
CO[C@@H]1[C@@H](OC(=O)c2cc(C)c(C)[nH]2)[C@@H](O)[C@H](Oc2ccc3c(O)c(NC(=O)c4ccc(O)c(CC=C(C)C)c4)c(=O)oc3c2C)OC1(C)C [Compound 213],MIC,"[1]; Escherichia coli, MC4100, 16 h",> 200 µM
same,MIC,"[2]; Escherichia coli, 25922, 16 h",> 200 µM
same,MIC,[3]; [8],> 100 µM
same,MIC,[4]; [9],1.8 µM
same,MIC,[5]; [10],0.45 µM
same,MIC,[6]; [11],> 100 µM
same,MIC,[7]; [12],4.5 µM
CO[C@@H]1[C@@H](OC(N)=O)[C@@H](O)[C@H](Oc2ccc3c(OCCO)c(NC(=O)c4ccc(O)c(CC=C(C)C)c4)c(=O)oc3c2C)OC1(C)C [Compound 215],MIC,"[1]; Escherichia coli, MC4100, 16 hour minimal inhibitory concentration at 37° C.",> 200 µM
same,MIC,"[2]; Escherichia coli, 25922, 16 hour minimal inhibitory concentration at 37° C.",> 200 µM
same,MIC,[3]; [13],> 100 µM
same,MIC,[4]; [14],38 µM
same,MIC,[5]; [10],19 µM
same,MIC,[6]; [15],> 100 µM
same,MIC,"[7]; Acinetobacter baumannii, 19606, 16 hour minimal inhibitory concentration at 37° C.",> 50 µM
C#Cc1cccc(C(=O)Nc2c(O)c3ccc(O[C@@H]4OC(C)(C)[C@H](OC)[C@@H](OC(N)=O)[C@H]4O)c(C)c3oc2=O)c1 [Compound 229],MIC,[1]; [16],> 200 µM
same,MIC,[2]; [17],> 200 µM
same,MIC,[3]; [13],> 100 µM
same,MIC,[4]; [14],90 µM
same,MIC,[5]; [18],90 µM
same,MIC,[6]; [15],> 100 µM
same,MIC,[7]; [19],> 50 µM
CO[C@@H]1[C@@H](OC(N)=O)[C@@H](O)[C@H](Oc2ccc3c(O)c(NC(=O)c4cccc(Oc5ccc(Cl)cc5)n4)c(=O)oc3c2C)OC1(C)C [Compound 238],MIC,[1]; [16],152 µM
same,MIC,[2]; [17],> 200 µM
same,MIC,[3]; [13],> 100 µM
same,MIC,[4]; [14],10 µM
same,MIC,[5]; [18],10 µM
same,MIC,[6]; [15],> 100 µM
same,MIC,[7]; [19],> 50 µM
CO[C@@H]1[C@@H](O)[C@@H](OC(=O)NC(C)(C)C)[C@H](Oc2ccc3c(O)c(NC(=O)c4ccc(O)c(CC=C(C)C)c4)c(=O)oc3c2C)OC1(C)C [Compound 106],MIC,[1]; [20],>200 µM
same,MIC,[2]; [20],>200 µM
same,MIC,[3]; [20],>100 µM
same,MIC,[4]; [20],>100 µM
same,MIC,[5]; [20],>100 µM
same,MIC,[6]; [20],>100 µM
same,MIC,[7]; [20],>50 µM
CO[C@@H]1[C@@H](OC(N)=O)[C@@H](O)[C@H](Oc2ccc3c(O)c(NC(C)=O)c(=O)oc3c2C)OC1(C)C [Compound 102],MIC,[1]; [20],>200 µM
same,MIC,[2]; [20],>200 µM
same,MIC,[3]; [20],>100 µM
same,MIC,[4]; [20],>100 µM
same,MIC,[5]; [20],>100 µM
same,MIC,[6]; [20],>100 µM
same,MIC,[7]; [20],>50 µM
CO[C@@H]1[C@@H](OC(=O)c2ccc(C)[nH]2)[C@@H](O)[C@H](Oc2ccc3c(O)c(NC(=O)c4ccc(O)c(CC=C(C)C)c4)c(=O)oc3c2C)OC1(C)C [Compound 112],MIC,"[1]; Escherichia coli, MC4100, 16 h",74 µM
same,MIC,"[2]; Escherichia coli, 25922, 16 h",18.5 µM
same,MIC,[3]; [8],> 100 µM
same,MIC,[4]; [9],< 0.01 µM
same,MIC,[5]; [10],< 0.01 µM
same,MIC,[6]; [11],37 µM
same,MIC,[7]; [12],< 0.11 µM
CCNC(=O)O[C@H]1[C@H](Oc2ccc3c(O)c(NC(=O)c4ccc(O)c(CC=C(C)C)c4)c(=O)oc3c2C)OC(C)(C)[C@H](OC)[C@H]1O [Compound 104],MIC,[1]; [20],>200 µM
same,MIC,[2]; [20],156 µM
same,MIC,[3]; [20],>100 µM
same,MIC,[4]; [20],2 µM
same,MIC,[5]; [20],2 µM
same,MIC,[6]; [20],>100 µM
same,MIC,[7]; [20],10 µM
COc1cccc(Oc2cccc(C(=O)Nc3c(O)c4ccc(O[C@@H]5OC(C)(C)[C@H](OC)[C@@H](OC(N)=O)[C@H]5O)c(C)c4oc3=O)c2)c1 [Compound 240],MIC,[1]; [16],4.5 µM
same,MIC,[2]; [17],38 µM
same,MIC,[3]; [13],> 100 µM
same,MIC,[4]; [14],19.2 µM
same,MIC,[5]; [18],19.2 µM
same,MIC,[6]; [15],> 100 µM
same,MIC,[7]; [19],> 50 µM
CO[C@@H]1[C@@H](OC(N)=O)[C@@H](O)[C@H](Oc2ccc3c(OCC4CO4)c(NC(=O)c4ccc(O)c(CC=C(C)C)c4)c(=O)oc3c2C)OC1(C)C (stereo partly shown) [Compound 217],MIC,[1]; [16],> 200 µM
same,MIC,[2]; [17],> 200 µM
same,MIC,[3]; [13],> 100 µM
same,MIC,[4]; [14],19 µM
same,MIC,[5]; [18],9 µM
same,MIC,[6]; [15],> 100 µM
same,MIC,[7]; [19],> 50 µM

# Reference: US11713335B2, “Aminocoumarin compounds and methods of their use” (President and Fellows of Harvard College, priority 2018, dated 2023)
